Experimental data published in article PMC5041982, “Small-molecule inhibition of STAT3 in radioresistant head and neck squamous cell carcinoma” (Oncotarget, 2016).

Columns and labels:
STAT3/1 regulated genes = experiment: RNA-seq of UM-SCC-17B tumor xenografts; assay type: in vivo; settings: UM-SCC-17B xenografts, nude mice
pSTAT1 = target: T1, pSTAT1 (Homo sapiens, UniProt P42224); experiment: pSTAT1 levels in UM-SCC-17B tumor xenografts (immunoblot); assay type: in vivo, nude mice; parameters: from tissue; host or cells: UM-SCC-17B tumour xenografts from nude mice; settings: UM-SCC-17B xenografts, p = 0.000003
T1 sequence (P42224 1-750): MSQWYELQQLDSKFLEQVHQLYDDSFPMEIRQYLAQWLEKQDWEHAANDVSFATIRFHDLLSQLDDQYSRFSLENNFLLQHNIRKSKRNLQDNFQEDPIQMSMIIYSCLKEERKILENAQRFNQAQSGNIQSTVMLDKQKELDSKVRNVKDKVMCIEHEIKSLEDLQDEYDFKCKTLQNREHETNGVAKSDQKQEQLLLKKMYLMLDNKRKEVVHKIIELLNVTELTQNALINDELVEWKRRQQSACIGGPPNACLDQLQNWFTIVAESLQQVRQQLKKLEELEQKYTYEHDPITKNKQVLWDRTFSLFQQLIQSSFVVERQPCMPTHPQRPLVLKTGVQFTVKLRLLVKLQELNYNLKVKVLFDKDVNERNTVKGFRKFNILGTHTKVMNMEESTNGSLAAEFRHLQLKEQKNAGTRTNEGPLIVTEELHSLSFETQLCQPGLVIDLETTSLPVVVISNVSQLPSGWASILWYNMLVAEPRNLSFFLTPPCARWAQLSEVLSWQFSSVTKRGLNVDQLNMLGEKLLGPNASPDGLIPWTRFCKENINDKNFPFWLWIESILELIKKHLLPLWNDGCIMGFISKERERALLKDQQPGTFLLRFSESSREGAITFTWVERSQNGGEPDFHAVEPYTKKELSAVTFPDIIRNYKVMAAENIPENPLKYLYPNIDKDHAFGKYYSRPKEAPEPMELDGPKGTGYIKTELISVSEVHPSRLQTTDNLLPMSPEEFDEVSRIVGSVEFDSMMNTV

## COc1ccc(S(=O)(=O)Nc2cc(-c3c(O)ccc4ccccc34)c(O)c3ccccc23)cc1 [Compound C188-9]
STAT3/1 regulated genes
  Fold Change, ADM: 1.8
  Fold Change, AKAP12: 2.9
  Fold Change, ALDH3A1: 2.6
  Fold Change, ANPEP: 3.7
  Fold Change, ATF3: 1.9
  Fold Change, BATF2: −2.1
  Fold Change, CALML3: −1.7
  Fold Change, CCL2: 5.1
  Fold Change, CCL20: 2.1
  Fold Change, CCNA1: −2.3
  Fold Change, CCND3: −1.6
  Fold Change, CLU: −1.7
  Fold Change, CMPK2: −2.1
  Fold Change, COL5A1: 1.7
  Fold Change, COL16A1: 1.8
  Fold Change, CXCL2: 2.9
  Fold Change, CXCL3: 2.6
  Fold Change, CYP1B1: 2.0
  Fold Change, DDX58: −1.7
  Fold Change, DYNC1H1: 1.5
  Fold Change, EGR1: 2.0
  Fold Change, EPSTI1: −2.2
  Fold Change, EREG: 1.8
  Fold Change, FOS: 2.0
  Fold Change, FOSB: 1.9
  Fold Change, GBP1: −1.7
  Fold Change, HERC5: −1.7
  Fold Change, HERC6: −1.6
  Fold Change, HK2: 1.6
  Fold Change, HSPG2: 1.5
  Fold Change, IER3: 2.0
  Fold Change, IFI6: −2.1
  Fold Change, IFI27: −1.7
  Fold Change, IFI35: −1.9
  Fold Change, IFI44: −1.7
  Fold Change, IFI44L: −2.3
  Fold Change, IFIT1: −2.5
  Fold Change, IFIT2: −2.2
  Fold Change, IFIT3: −2.5
  Fold Change, IFIT5: −1.6
  Fold Change, IFITM1: −1.5
  Fold Change, IFITM3: −1.5
  Fold Change, IGFBP3: 3.3
  Fold Change, IRF7: −1.7
  Fold Change, ISG15: −2.3
  Fold Change, KRT15: −2.1
  Fold Change, LY6E: −1.5
  Fold Change, MMP10: −1.7
  Fold Change, MX1: −1.9
  Fold Change, MX2: −1.8
  Fold Change, NAV1: 1.6
  Fold Change, NEDD9: 1.9
  Fold Change, NNMT: −2.3
  Fold Change, NOTCH4: 1.8
  Fold Change, NPTX2: 6.5
  Fold Change, NR4A2: 1.8
  Fold Change, NRP2: 1.9
  Fold Change, OAS1: −2.1
  Fold Change, OAS2: −1.8
  Fold Change, OASL: −2.6
  Fold Change, PCDH17: −3.7
  Fold Change, PDK1: 1.7
  Fold Change, PHLDA1: 1.8
  Fold Change, PLSCR1: −1.8
  Fold Change, PSMB9: −1.6
  Fold Change, PTGS2: 4.4
  Fold Change, SAMD9: −1.7
  Fold Change, SCARA3: −1.8
  Fold Change, SERPINB3: −1.6
  Fold Change, SERTAD2: 1.6
  Fold Change, SFRP1: −2.6
  Fold Change, SLC2A1: 1.7
  Fold Change, SLC2A3: 5.9
  Fold Change, SLC4A7: 1.8
  Fold Change, SLC7A11: 1.6
  Fold Change, SLPI: −1.6
  Fold Change, SMAD9: 2.7
  Fold Change, SP110: −1.6
  Fold Change, SPOCK3: −5.1
  Fold Change, STC1: 1.8
  Fold Change, TGFBR3: 1.5
  Fold Change, THBS1: 2.2
  Fold Change, TNC: 2.9
  Fold Change, TRIM22: −1.7
  Fold Change, TYMP: −1.7
  Fold Change, UBE2L6: −1.5
  Fold Change, UPK1B: −1.9
  Fold Change, USP18: −1.9
  Fold Change, VEGFA: 2.0
  Fold Change, VLDLR: 1.7
pSTAT1
  Reduction of pSTAT1 levels in tumor xenografts vs vehicle control: 80%
